ChEMBL document CHEMBL4483862, “Open-source discovery of chemical leads for next-generation chemoprotective antimalarials” (2018)

Tested on: Plasmodium berghei
Assay: Luciferase/luciferin-expressing antifolate-resistant parasites were used to infect a culture of HepG2 cells that were pre-incubated with compounds. Infected hepatocytes emit light due to the luciferase reaction. Assay results are presented as the percent inhibition of light emission compared to control. […]
Format: functional
Details: sporozoite; for IC90: read-out: LUCIFERASE INFECTION ASSAY - IC90
[1] = PBLUC_HILL_SLOPE 15.5, PBLUC_R_SQUARED 0.469, read-out: LUCIFERASE INFECTION ASSAY - IC50

Structure (SMILES) | IC90 [µM] | other results
CC(C)c1ccc(CN2CCC2(C)C(=O)Nc2cnc3ccccc3c2)cc1 (configuration not stated) | 3.79 | IC50 (PBLUC_HILL_SLOPE 15.4, PBLUC_R_SQUARED 0.671, read-out: LUCIFERASE INFECTION ASSAY - IC50): 3.29 µM
Cn1nc(C(F)(F)F)cc1-c1ccc(NC(=O)Nc2cccc(C(F)(F)F)c2)s1 | > 7.6 | IC50 (PBLUC_HILL_SLOPE 15.6, PBLUC_R_SQUARED 0.0592, read-out: LUCIFERASE INFECTION ASSAY - IC50): 7.44 µM
CC(C)C(=O)N1CCN(c2nc(CSc3ccccc3)nc3sc4c(c23)CCCC4)CC1 | > 10 | IC50 (PBLUC_HILL_SLOPE 15.3, PBLUC_R_SQUARED 0.212, read-out: LUCIFERASE INFECTION ASSAY - IC50): 8.67 µM
Clc1ccc(Sc2ncnc3ccsc23)cc1 | 9.97 | IC50 (PBLUC_HILL_SLOPE 15.3, PBLUC_R_SQUARED 0.133, read-out: LUCIFERASE INFECTION ASSAY - IC50): 8.63 µM
CC1=C(C(=O)OC2CCCCC2)C(c2ccccc2Br)CC(=O)N1 (configuration not stated) | > 8.41 | IC50 (PBLUC_HILL_SLOPE 15.2, PBLUC_R_SQUARED 0.697, read-out: LUCIFERASE INFECTION ASSAY - IC50): 7.66 µM
OC(COc1cccc(C(F)(F)F)c1)CN1CCN(c2nc(-c3ccccc3)ns2)CC1 (configuration not stated) | > 7.1 | IC50 (PBLUC_HILL_SLOPE 15.4, PBLUC_R_SQUARED 0.391, read-out: LUCIFERASE INFECTION ASSAY - IC50): 6.73 µM
CCC(NCC(O)COc1ccccc1C(C)C)c1ccc(Br)cc1 (configuration not stated) | > 10 | IC50 (PBLUC_HILL_SLOPE 15.5, PBLUC_R_SQUARED 0.67, read-out: LUCIFERASE INFECTION ASSAY - IC50): 9.4 µM
O=C(/C=C/c1ccccc1[N+](=O)[O-])OCc1nc2ccccc2s1 | > 10 | IC50 (PBLUC_HILL_SLOPE 15.4, PBLUC_R_SQUARED 0.138, read-out: LUCIFERASE INFECTION ASSAY - IC50): > 10 µM
CN(C)c1cccc(-c2cnc3cnc(-c4cccc(C(N)=O)c4)cn23)c1 | > 9.23 | IC50 (PBLUC_HILL_SLOPE 15.5, PBLUC_R_SQUARED 0.533, read-out: LUCIFERASE INFECTION ASSAY - IC50): 8.74 µM
NC(c1csc(NC(=O)Nc2ccccc2-c2ccccc2)n1)C1CCCCC1 (configuration not stated) | > 8.12 | IC50 (PBLUC_HILL_SLOPE 15.5, PBLUC_R_SQUARED 0.0255, read-out: LUCIFERASE INFECTION ASSAY - IC50): 7.57 µM
O=C1CN(CC(=O)N2N=C(c3ccc4ccccc4c3)CC2c2ccccc2)c2ccccc2N1 (configuration not stated) | > 10 | IC50 (PBLUC_HILL_SLOPE 15.5, PBLUC_R_SQUARED 0.336, read-out: LUCIFERASE INFECTION ASSAY - IC50): 9.53 µM
Cc1ccc2cc(Cn3cc(Br)ccc3=O)c(Cl)nc2c1C | 3.58 | IC50 (PBLUC_HILL_SLOPE 15.2, PBLUC_R_SQUARED 0.445, read-out: LUCIFERASE INFECTION ASSAY - IC50): 3.1 µM
O=C(Cc1ccc(-c2ccccc2)cc1)NCc1cn2ccccc2n1 | > 10 | IC50 (PBLUC_HILL_SLOPE 15.5, PBLUC_R_SQUARED 0.301, read-out: LUCIFERASE INFECTION ASSAY - IC50): 8.96 µM
COc1ccc(-c2nc(NC(=O)CCc3ccc4c(c3)OCO4)sc2C)cc1 | > 10 | IC50 (PBLUC_HILL_SLOPE 15.2, PBLUC_R_SQUARED 0.468, read-out: LUCIFERASE INFECTION ASSAY - IC50): 8.95 µM
COc1ccc(-c2cnc3ccc(-c4cccc(C(F)(F)F)c4)nn23)cc1OC | 9.93 | IC50 (PBLUC_HILL_SLOPE 15.4, PBLUC_R_SQUARED 0.158, read-out: LUCIFERASE INFECTION ASSAY - IC50): 8.61 µM
CN(C)CCCOc1ccc(-c2nnc3ccc(-c4cccc(Oc5ccccc5)c4)cn23)cc1 | > 10 | IC50 (PBLUC_HILL_SLOPE 15.3, PBLUC_R_SQUARED 0.363, read-out: LUCIFERASE INFECTION ASSAY - IC50): 9.36 µM
COc1ccc(C(=O)Nc2ccccc2-c2nc3ccccc3[nH]2)cc1S(=O)(=O)N1CCCC1 | > 10 | IC50 (PBLUC_HILL_SLOPE 15.4, PBLUC_R_SQUARED 0.501, read-out: LUCIFERASE INFECTION ASSAY - IC50): 8.92 µM
COc1ccc(C(N)c2csc(NC(=O)Nc3cccc(C#N)c3)n2)cc1 (configuration not stated) | 3.43 | IC50 (PBLUC_HILL_SLOPE 15.3, PBLUC_R_SQUARED 0.483, read-out: LUCIFERASE INFECTION ASSAY - IC50): 2.97 µM
CCNC(=O)c1nn(Cc2ccccc2)c2c1CC(NCc1ccc(Cl)s1)CC2 (configuration not stated) | > 7.69 | IC50 (PBLUC_HILL_SLOPE 15.3, PBLUC_R_SQUARED 0.172, read-out: LUCIFERASE INFECTION ASSAY - IC50): 7.58 µM
COc1ccccc1-n1c(C)cc(/C=C(\C#N)c2nnc3n2CCCCC3)c1C | > 10 | IC50 (PBLUC_HILL_SLOPE 15.5, PBLUC_R_SQUARED 0.0701, read-out: LUCIFERASE INFECTION ASSAY - IC50): 9.71 µM
CCc1ccc(CN(Cc2cccnc2)C(=O)c2ccc3ccccc3n2)cc1 | 4.26 | IC50 (PBLUC_HILL_SLOPE 15.3, PBLUC_R_SQUARED 0.276, read-out: LUCIFERASE INFECTION ASSAY - IC50): 3.69 µM

Structure (SMILES) | IC90 [µM] | other results
CC(C)c1ccc(-c2csc(NC(=O)c3cccc(NC(=O)C4CCCO4)c3)n2)cc1 (configuration not stated) | > 10 | IC50 (PBLUC_HILL_SLOPE 15.4, PBLUC_R_SQUARED 0.296, read-out: LUCIFERASE INFECTION ASSAY - IC50): 9.87 µM
COc1cc(-c2ccc3ncc(-c4cccc(OC(F)(F)F)c4)n3n2)cc(OC)c1OC | 3.72 | IC50 (PBLUC_HILL_SLOPE 15.5, PBLUC_R_SQUARED 0.302, read-out: LUCIFERASE INFECTION ASSAY - IC50): 3.23 µM
CC(C)(C)C(=O)c1sc2c(c1N)c(=O)[nH]c(=O)n2C1CCCCC1 | 3.47 | IC50 (PBLUC_HILL_SLOPE 15.3, PBLUC_R_SQUARED 0.0878, read-out: LUCIFERASE INFECTION ASSAY - IC50): 3.01 µM
COc1ccc(CCC2CCN(C(=O)c3cc(S(N)(=O)=O)c(Cl)cc3Cl)CC2)cc1 | > 10 | IC50 (PBLUC_HILL_SLOPE 15.3, 12.1, PBLUC_R_SQUARED 0.180, 0.0239, read-out: LUCIFERASE INFECTION ASSAY - IC50): 9.53 µM
CCC(C(=O)Nc1nc2ccccn2c1C(=O)NC1CCCCC1)c1ccccc1 (configuration not stated) | > 8.16 | IC50 (PBLUC_HILL_SLOPE 15.5, PBLUC_R_SQUARED 0.112, read-out: LUCIFERASE INFECTION ASSAY - IC50): 7.66 µM
CCN(CC(=O)Nc1nnc(-c2ccccc2)o1)Cc1ccc(Br)s1 | 3.99 | IC50 [1]: 3.46 µM
CN(Cc1ccc(Cl)cc1Cl)C(=O)NCc1ccc(S(=O)(=O)N2CCCCC2)cc1 | > 10 | IC50 (PBLUC_HILL_SLOPE 15.3, PBLUC_R_SQUARED 0.472, read-out: LUCIFERASE INFECTION ASSAY - IC50): 9.36 µM
CN(C)CCCOc1ccc(-c2cn3c(-c4cccc(OC(F)(F)F)c4)cnc3cn2)cn1 | > 7.21 | IC50 (PBLUC_HILL_SLOPE 15.4, PBLUC_R_SQUARED 0.0337, read-out: LUCIFERASE INFECTION ASSAY - IC50): 6.95 µM
Fc1ccc(CNc2ccc(-c3nc4ccccc4[nH]3)cc2)cc1 | > 10.4 | IC50 (PBLUC_HILL_SLOPE 15.3, PBLUC_R_SQUARED 0.322, read-out: LUCIFERASE INFECTION ASSAY - IC50): 9.03 µM
O=C(NC1CCN(C(=O)c2ccoc2)CC1)c1cccc2c3c([nH]c12)CCCCC3 | > 10 | IC50 (PBLUC_HILL_SLOPE 15.4, PBLUC_R_SQUARED 0.491, read-out: LUCIFERASE INFECTION ASSAY - IC50): 9.35 µM
CCOC(=O)c1c[nH]c2c(C)cc(Cl)cc2c1=O | > 12.4 | IC50 (PBLUC_HILL_SLOPE 15.3, PBLUC_R_SQUARED 0.364, read-out: LUCIFERASE INFECTION ASSAY - IC50): 11.2 µM
OCCNc1nc(-c2cccnc2)nc2scc(-c3ccccc3)c12 | > 10 | IC50 (PBLUC_HILL_SLOPE 15.6, PBLUC_R_SQUARED 0.267, read-out: LUCIFERASE INFECTION ASSAY - IC50): 9.57 µM
COCOc1ccc(-c2cc(-c3ccc(C(N)=O)cc3)cnc2N)cc1 | 3.43 | IC50 (PBLUC_HILL_SLOPE 15.5, PBLUC_R_SQUARED 0.616, read-out: LUCIFERASE INFECTION ASSAY - IC50): 2.98 µM
CCN(Cc1ccccc1)S(=O)(=O)c1cc(C(=O)N2CCc3ccccc3C2)ccc1OC | > 10 | IC50 (PBLUC_HILL_SLOPE 15.3, PBLUC_R_SQUARED 0.425, read-out: LUCIFERASE INFECTION ASSAY - IC50): 9.68 µM
O=c1cc(C(F)(F)F)[nH]c2cc(C(F)(F)F)ccc12 | 4.25 | IC50 (PBLUC_HILL_SLOPE 15.4, PBLUC_R_SQUARED 0.673, read-out: LUCIFERASE INFECTION ASSAY - IC50): 3.68 µM
CS(=O)(=O)Nc1ccc(-c2csc(NC(=O)c3ccc(CN4CCCCC4)cc3)n2)cc1 | > 10 | IC50 (PBLUC_HILL_SLOPE 15.3, PBLUC_R_SQUARED 0.202, read-out: LUCIFERASE INFECTION ASSAY - IC50): 9.15 µM
O=C(CNC(=O)c1ccc(Oc2ccccc2)cc1)Nc1nccs1 | > 10 | IC50 [1]: 9.34 µM
Cc1ccc(CCCNC(=O)c2cc(C3CC3)n[nH]2)c(C)c1 | 4.2 | IC50 (PBLUC_HILL_SLOPE 15.6, PBLUC_R_SQUARED 0.22, read-out: LUCIFERASE INFECTION ASSAY - IC50): 3.65 µM
Cc1ccc(C(=O)Nc2nc3ccccn3c2C(=O)NC(C)C)cc1 | > 9.81 | IC50 (PBLUC_HILL_SLOPE 15.2, PBLUC_R_SQUARED 0.478, read-out: LUCIFERASE INFECTION ASSAY - IC50): 8.52 µM
Nc1ncc(-c2ccc(C(=O)NC3CC3)cc2)cc1-c1ccc(F)c(Cl)c1 | 8.39 | IC50 (PBLUC_HILL_SLOPE 15.4, PBLUC_R_SQUARED 0.346, read-out: LUCIFERASE INFECTION ASSAY - IC50): 7.27 µM
